# Entries after “also recorded” stand apart in the source; their conditions may differ. Bridges are numbered along the chain shown (N, C = ends). Roman numbers before positions name the chains, in order. Where no end group is shown, it is not given here.
# B1: svL4, tetravalent peptide [(…-GGGS)2K]2K-NH2 (designed binder)
# chain 1: VQATQSNQHTPRGGGS
# chain 2: Lys-Lys-Lys-NH2
# modifications: not fully specified; printed as [(VQATQSNQHTPR-GGGS)_2_K]_2_K-NH_2_; also: tetravalent: four arms joined by C-termini to branched tri-lysine core
# Tests used:
# [1] = tested on: ASGPR-1; conditions: cited from earlier work
# Experimental: The type II C-type lectin asialoglycoprotein receptor-1 (ASGPR-1, Ashwell-Morell receptor, CLEC4H1) on hepatic cells also binds GalNAc-containing structures. ASGPR-1 has a 60-fold greater preference for GalNAc over Gal. Each healthy rat hepatocyte expresses 4 to 5 × 10^5 molecules of ASGPR-1 as binding sites for asialo-orosomucoid or 1.8 × 10^6 molecules as determined by an ASGPR-1-targeted antibody, which provides a surface concentration for the receptor of 0.8 to 1 μM. […] Corresponding values for binding of svL4 to CLEC10A and ASGPR-1 of 0.24 ± 0.04 μM and 0.21 ± 0.03 μM, respectively, were obtained. […] Asialofetuin, a multi-glycosylated pro ...
# [2] = tested on: ID8 ovarian cancer in C57BL/6 mice; assay: Murine ovarian cancer model (ID8), sv6D and paclitaxel study; assay type: in vivo, mouse (C57BL/6)
# Source text: Mantel-Cox log-rank test, p (sv6D vs. PBS) = < 0.0001. Paclitaxel, brown; sv6D from day 45, blue; paclitaxel plus sv6D from day 100, purple; cremophor, yellow; PBS, black
# [3] = tested on: ASGPR-1; assay: Inhibition of svL4 binding to ASGPR-1; design: species or system human; conditions: 75 μM asialofetuin, 0.2 μM svL4
# Experimental: Solid-phase binding assays were performed with streptavidin-, protein A/G-, or Nickel-coated microtiter plates (Pierce). His-tagged or Fc-fusion recombinant receptors (R&D Systems, Minneapolis, MN) were reconstituted in PBS. Sufficient receptors were added to wells to saturate the coating. His-tagged receptors were added to each well at a 5-fold excess over the stated capacity of the Ni coating to minimize non-specific binding of the peptide. […] The wells were washed four times with binding buffer and then incubated with 50 μL of 1 μg/mL streptavidin conjugated with peroxidase (Sigma-Aldrich) for 1 h. The wells were washed five times with binding buffer and 50 μL of peroxidase substrate (1-Step™ Ultra TMB, Pierce) were added. After several minutes to allow color development, the reaction was stopped with 50 μL 1 M H3PO4 and absorbance was measured at 450 nm. Bound streptavidin was quantitated by the specific activity of peroxidase (absorbance/ng protein conjugate/min) under the conditions of the assay.
# Corresponding values for binding of svL4 to CLEC10A and ASGPR-1 of 0.24 ± 0.04 μM and 0.21 ± 0.03 μM, respectively, were obtained.
# [4] = biological target: T1, human CLEC10A (Homo sapiens, UniProt Q8IUN9); assay: Solid-phase binding to recombinant human CLEC10A; conditions: for binding to CLEC10A: Fig. 2a, representative of 3 independent experiments
# T1 construct: purchased R&D Systems
# T1 sequence (Q8IUN9 61-316 limits assumed): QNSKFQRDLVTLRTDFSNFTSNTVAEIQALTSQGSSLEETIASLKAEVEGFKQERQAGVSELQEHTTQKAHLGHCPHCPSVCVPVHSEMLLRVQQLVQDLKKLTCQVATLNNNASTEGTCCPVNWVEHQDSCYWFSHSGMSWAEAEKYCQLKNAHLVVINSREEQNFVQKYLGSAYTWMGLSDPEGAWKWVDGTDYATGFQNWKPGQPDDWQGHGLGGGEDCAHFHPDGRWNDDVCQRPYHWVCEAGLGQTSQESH
# Experimental: (§1) Solid-phase binding assays were performed with streptavidin-, protein A/G-, or Nickel-coated microtiter plates (Pierce). His-tagged or Fc-fusion recombinant receptors (R&D Systems, Minneapolis, MN) were reconstituted in PBS. Sufficient receptors were added to wells to saturate the coating. His-tagged receptors were added to each well at a 5-fold excess over the stated capacity of the Ni coating to minimize non-specific binding of the peptide. Wells were washed three times with binding buffer (25 mM Tris HCl, pH 7.4, 150 mM NaCl, 0.05% Tween-20) to remove unbound receptor and 50 μL of 2 μM biotinylated peptide in binding buffer were added and allowed to incubate for 1 h. The wells were washed four times with binding buffer and then incubated with 50 μL of 1 μg/mL streptavidin conjugated with peroxidase (Sigma-Aldrich) for 1 h. The wells were washed five times with binding buffer and 50 μL of peroxidase substrate (1-Step™ Ultra TMB, Pierce) were added. After several minutes to allow color development, the reaction was stopped with 50 μL 1 M H3PO4 and absorbance was measured at 450 nm. Bound streptavidin was quantitated by the specific activity of peroxidase (absorbance/ng protein conjugate/min) under the conditions of the assay.
# (§2) Solid-phase binding assays were performed with recombinant human receptors. Three variations of the binding assay were used in this study, all of which allowed the arms of the tetravalent peptide to have full flexibility. (i) Biotinylated peptide was bound in microtiter wells coated with streptavidin and incubated with recombinant human receptors. After extensive washing, the bound receptor was measured by peroxidase conjugated to a receptor-specific antibody. (ii) The extracellular domains of receptors, which were fused with the Fc domain of immunoglobulin IgG, were bound in wells coated with protein A/G. Biotinylated peptide was incubated with the receptors and, after extensive washing, bound peptide was measured with streptavidin conjugated with peroxidase. Or (iii), recombinant receptors with a poly-His tag were bound to Nickel-coated wells and incubated with biotinylated peptide. svL4 and sv6D contain His residues (see Table 1) and can bind to the Ni coating, which was minimized by adding sufficient poly-His-tagged receptor to saturate the Ni coating.
# [5] = biological target: T2, human ASGPR-1 (Homo sapiens, UniProt P07306); assay: Solid-phase binding to recombinant human ASGPR-1; conditions: for binding to ASGPR-1: Fig. 2a, representative of 3 independent experiments
# T2 construct: purchased R&D Systems
# T2 sequence (P07306 62-291 limits assumed): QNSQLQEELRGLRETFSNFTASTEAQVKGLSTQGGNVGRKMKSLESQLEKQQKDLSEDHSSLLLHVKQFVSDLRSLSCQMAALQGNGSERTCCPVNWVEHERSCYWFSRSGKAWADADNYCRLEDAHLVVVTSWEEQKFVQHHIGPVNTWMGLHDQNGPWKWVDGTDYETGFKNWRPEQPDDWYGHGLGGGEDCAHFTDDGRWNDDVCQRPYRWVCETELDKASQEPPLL
# Experimental: as §1, §2
# [6] = Antigenicity assay in mouse sera; assay type: in vivo; conditions: 1 nmole/g s.c., alternate days for 3 months; sera of 8 treated mice, Fig. 8
# Experimental: The sequence of one arm of svL4 or sv6D was conjugated to keyhole limpet hemocyanin (KLH) and injected into rabbits at two week intervals (total of 3 injections) (New England Peptide, Inc., Gardner, MA). Two weeks after the final injection, sera were prepared. Mice were injected with a peptide every other day over a period of 3 months (total ~ 45 injections), blood was then collected by cardiac puncture and sera were prepared. Rabbit serum was diluted 1:10, whereas mouse serum was diluted 1:1 or 1:5 with PBS containing 0.05% Tween-20 (PBST). Sera were incubated in microtiter wells coated with protein A/G (Pierce) for 90 min. The wells were washed three times with PBST, and then incubated with 50 μL of 1 μM biotinylated svL4 or sv6D for 1 h. The wells were washed four times with PBST, incubated 1 h with 1 μg/mL streptavidin-peroxidase conjugate, and washed four times with PBST. Peroxidase activity was assayed as above under Binding Assays.
# Fig. 8 Test for antigenicity of svL4 and sv6D. Anti-sera were generated in rabbits against KLH-conjugates of the sequences of svL4 or sv6D and diluted 1:10. Mouse sera were collected after alternate-day injections of svL4 over 3 months, diluted 1:1 with PBS and added to protein-A/G-coated wells. Biotinylated svL4 or sv6D was added to wells and bound peptide was detected with a streptavidin-peroxidase conjugate. […]
# [7] = tested on: peritoneal cells of C57BL/6 mice; assay: Peritoneal immune cell populations by flow cytometry, C57BL/6 mice; assay type: in vivo, mouse (C57BL/6); conditions: 1 nmole/g s.c., 5-day period, Fig. 5 (non-binding control)
# Experimental: Healthy C57BL/6 male mice, 10 weeks old, were injected subcutaneously with peptides on alternate days. Peritoneal cells were isolated from mice 24 h after dosing by injecting ice cold PBS (containing 3% FBS) into the peritoneal cavity, gently massaging the abdomen, and then collecting the fluid, which was transferred into K2EDTA-treated tubes for evaluation of specific biomarkers. Cells from three mice in each group were pooled, counted and divided among FACS tubes (1 × 10^6 cells per tube). Cells were washed once in PBS containing 3% FBS, then stained with 0.25 to 1 μg of fluorescently conjugated antibody per 10^6 cells in 100 μL of buffer as recommended by the manufacturer (Table 2).
# Cells were incubated with the antibodies for 30 min at 4 °C in the dark. Following staining, the cells were washed two times with PBS/3% FBS and immediately analyzed with a MACSQuant flow cytometer (Miltenyi Biotech, Inc., San Diego, CA). Compensation was performed using single stain tubes for each color present in the analysis as well as an unstained control sample. Collection of flow cytometric data and analysis with FlowJo software, version 10.0.6 (FlowJo, LLC, Ashland, OR) were performed by Biomodels LLC (Watertown, MA).
# To examine whether increases occurred in mature immune cells, peritoneal cells from Balb/c and C57BL/6 mice were analyzed by flow cytometry after cells were stained with the markers listed in Table 2. […] To explore this observation more extensively, svL4 or sv6D was injected into C57BL/6 mice on day 0, 2 or 4. Peritoneal cells were examined by flow cytometry 24 h after each injection. Shown in Fig. 5 are results expressed as cell counts for F4/80 CD11b CD86 (mature, active macrophages); CD11c (DCs); CD11c CD 86 (activated DCs); CD4 CD69 (activated T cells); CD8 CD69 (activated cytotoxic T cells); NK1.1 CD3^+ CD69 (activated NKT cells); NK1.1 CD3^− CD69 (activated NK cells); CD19 (B cells); and CD19 CD73 CD80 CD273 (memory B cells). The numbers of these mature, activated cells continued to increase with each injection.
# Fig. 5 Expansion of peritoneal cells in C57BL/6 mice. Mice were injected subcutaneously at a dose of 1 nmole/g body weight of svL4, sv6D or svC1. Cells in each population recovered in a peritoneal lavage are expressed as cell counts (in thousands). Cells from three mice in each treatment group were pooled for analysis. The number of cells in each population was normalized to the average recovery of total cells from all groups. For each cell type, the left-hand, middle and right-hand set of bars represent samples from mice treated with svL4, sv6D or svC1, respectively. Mice were injected on days 0, 2 and 4, and cells were collected 24 h after each injection. Day 1, open bar; day 3, grey bar; day 5, black bar. Populations that express activation markers are indicated by an asterisk
# [8] = tested on: PD-1; conditions: patients with ovarian cancer; ref [106], [107]; cited from earlier work
# Source text: Paclitaxel is currently used as a chemotherapeutic drug that acts by stabilizing microtubules and arresting cells in the cell cycle at the G2/M boundary. Paclitaxel is often combined with a platinum-based drug. Patients treated with these drugs experience a significant level of toxicity. […] However, because sv6D induces proliferation of immune cells, initiation of treatment should perhaps occur after the cell cycle inhibitory action of paclitaxel has dissipated. Pat ...
# [9] = biological target: recombinant human CLEC10A (C-type lectin receptor family member 10A) (human) (UniProt Q8IUN9); assay: ELISA; solid-phase binding assay as a function of the concentration of peptide; KD from double-reciprocal plots of the binding curves; extensive wash steps
# [10] = biological target: recombinant human asialoglycoprotein receptor-1 (ASGPR-1) (human) (UniProt P07306); assay: as above
# [11] = double-reciprocal plot of binding vs. peptide concentration, biotinylated peptide, binding buffer 25 mM Tris HCl pH 7.4, 150 mM NaCl, 0.05% Tween-20, 1 h, streptavidin-peroxidase 450 nm, ± S.D., 4 separate assays
molecule,measurement,setting,value
"CC(=O)N[C@H]1C(O)O[C@H](CO)[C@H](O)[C@@H]1O (mixture of isomers) [GalNAc, N-acetylgalactosamine]",preference of ASGPR-1 for GalNAc over Gal,[1]; ref [39],60 fold
CC(=O)O[C@H]1C(=O)[C@@]2(C)[C@H]([C@H](OC(=O)c3ccccc3)[C@]3(O)C[C@H](OC(=O)[C@H](O)[C@@H](NC(=O)c4ccccc4)c4ccccc4)C(C)=C1C3(C)C)[C@]1(OC(C)=O)CO[C@@H]1C[C@@H]2O [paclitaxel],body weight increase (ascites),"[2]; aggressive disease, two weeks of treatment, sv6D 0.1 nmole/g s.c. alternate days, paclitaxel 18 μg/g i.p. days 45, 47, 49",had not significantly increased
same,ρ of body weight on day 58 vs. PBS or no treatment,"[2]; paclitaxel 18 μg/g i.p. days 45, 47, 49, t test, Fig. 6a",< 0.05
same,median survival,"[2]; paclitaxel alone, PBS control 122 days, Fig. 6c",approximately 141 days
same,"ρ of body weight on day 121, paclitaxel vs. PBS","[2]; t test, Fig. 6b",< 0.05
Asialofetuin: multi-glycosylated protein,IC50,"[1]; ASGPR-1, ref [43]",45600 ± 2700 nM
same,inhibition of binding of svL4 to ASGPR-1,[3],53%
"I: NQHTPRGGGSKK-NH2 / II: NQHTPRGGGSK / III: NQHTPRGGGS / IV: NQHTPRGGGS (amide I:11-IV:C, I:12-II:C, II:11-III:C) [sv6D]",Kd,[4]; [11],150 ± 20 nM
same,Kd,[5]; [11],120 ± 10 nM
same,antibodies that bind the peptides in mouse sera,[6],negative
[(VQATQS- GGGS)2K]2K-NH2 [svC1],binding to CLEC10A,[4],near the level of blank wells; also recorded: does not bind to CLEC10A
same,expansion of specific cell types,[7],did not increase significantly
same,binding to ASGPR-1,[5],near the level of blank wells
[(VSNQH- GGGS)2K]2K-NH2 [svD2],binding to CLEC10A,[4],bound weakly
same,binding to ASGPR-1,[5],bound weakly
nivolumab: antibody against the inhibitory receptor PD-1,overall response rate,[8],15%
pembroliumab: antibody against the inhibitory receptor PD-1,overall response rate,[8],15%
B1,Kd,[9],240 nM
same,Kd,[10],210 nM
